“Also recorded” adds a separate entry of the source. One block for each molecule: values may come before it.
Key:
PD-L1 mRNA = PD-L1 mRNA expression by RT-qPCR in PC-3 cells treated with chemicals; type: cell-based, human; conditions: 24 hours; for PD-L1 mRNA expression: RT-qPCR; for palbociclib-induced elevation of PD-L1: co-treatment with palbociclib
Method: FIGS. 1A-K. RB suppresses PD-L1 mRNA expression. (A) PC-3 cell were treated with indicated chemicals for 24 hours. Cells were harvested for RT-qPCR. All data were shown as mean values±SD (n=3). * P<0.05, ** P<0.01, *** P<0.001. (B) PC-3 cells were infected with lentivirus expressing control or CDK4 and CDK6-specific shRNAS. 72 hours after infection, cells were harvested for RT-qPCR. All data were shown as mean values±SD (n=3). *** P<0.001. (C-F) PC-3 cells were infected with lentivirus expressing control or RB1-specific shRNAs. 48 hours after infection, PD-L1 protein levels were determined by western blotting (C), RT-qPCR (D), FACS (E), and IFC (F). All data were shown as mean values±SD (n=3). * P<0.05, ** P<0.01, *** P<0.001. (G) PD-L1 mRNA levels were determined by RT-qPCR in SKO and DKO mouse prostate tumor cells. All data were shown as mean values±SD (n=3). * P<0.05, ** P<0.01, *** P<0.001. (H-J) SKO (H), DKO (I), and Rb^−/−PrE (J) cells were treated with palbociclib for 24 hours. Cells were harvested for RT-qPCR. All data were shown as mean values±SD (n=3). * P<0.05, ** P<0.01, *** P<0.001. (K) The putative copy-number calls for RB1 were determined using GISTC 2.0, and the mRNA expression for CD274(PD-L1) was measured by log 2(RPKM), here RPKM stands for Reads Per Kilobase of transcript per Million mapped reads. […] The nonparametric Mann-Whitney U test was used for the statistical test.
FIGS. 8A-D. (A) PC-3, MIA PaCa-2, H1299, SK-Hep1, and PTEN-CaP8 cells were treated with different doses of palbociclib for 24 hours. Cells were harvested for RT-qPCR. All data were shown as mean values±SD (n=3). * P<0.05, ** P<0.01. (B) PC-3 cell were treated with indicated chemicals for 24 hours. Cells were harvested for RT-qPCR. All data were shown as mean values±SD (n=3). Ns, not significant, * P<0.05, ** P<0.01. (C, D) PC-3 cells were infected with lentivirus expressing control shRNA or RB1-specific shRNA. 24 hours after puromycin selection, cells were treated with or without Helenalin (2 μM) for 24 hours. Cells were harvested for western blotting analysis (C) and RT-qPCR (D). All data were shown as mean values±SD (n=3). Ns, not significant, *** P<0.001.
FIGS. 13A-F. (A, B) PC-3 cells were treated with or without gamma irradiation (IR) (12 Gy). 24 hours post treatment, cells were treated with or without Helenalin (2 μM). 24 hours after treatment, cells were harvested for western blotting analysis (A) and RT-qPCR analysis (B). All data were shown as mean values±SD (n=3). “ns”=not significant, *** P<0.001. (C) PTEN-CaP8 cells were infected with lentivirus expression Tsin control or Tsin-RL S249D/T252D peptide. 72 hours post infection, cell were harvested for western blotting analysis. (D, E) PTEN-CaP8 cells were infected with lentivirus expression Tsin control or Tsin-RL S249D/T252D peptide. 72 hours post infection, cells were treated with or without gamma irradiation (12 Gy) for 48 hours. Cells were harvested for MTS assay (D) and RT-qPCR (E). All data were shown as mean values±SD (n=3). “ns”=not significant, ** P<0.01; *** P<0.001. (F) Schematic diagram depicting the treatment plan for mice bearing subcutaneous PTEN-CaP8 tumors.
Total RNA was isolated using TRIzol reagent (Thermo Fisher Scientific). The NanoDrop 2000 spectrophotometer (Thermo Fisher Scientific) was used to assess RNA yield and quality. RNA was reversely transcribed using Superscript reverse transcriptase (Thermo Fisher Scientific) following manufacturer's instructions. Quantitative real-time PCR was performed by mixing cDNA, gene-specific primers, and IQ SYRB Green Supermix and detected by iCycler QTX detection system (Bio-Rad). The 2-ΔCt method was used to quantitate fold changes by normalizing to GAPDH. Primers for RT-qPCR are provided Table 4.

[1] = biological target: T1, retinoblastoma protein RB (endogenous) (human, UniProt P06400 2-928); experiment: co-IP of endogenous proteins in PC-3 cells (FIGS. 2A and 18A)
T1 construct: Endogenous protein of cell lysates, phosphorylation state as in the cells; also called RB1; endogenous RB
T1 sequence (looked up): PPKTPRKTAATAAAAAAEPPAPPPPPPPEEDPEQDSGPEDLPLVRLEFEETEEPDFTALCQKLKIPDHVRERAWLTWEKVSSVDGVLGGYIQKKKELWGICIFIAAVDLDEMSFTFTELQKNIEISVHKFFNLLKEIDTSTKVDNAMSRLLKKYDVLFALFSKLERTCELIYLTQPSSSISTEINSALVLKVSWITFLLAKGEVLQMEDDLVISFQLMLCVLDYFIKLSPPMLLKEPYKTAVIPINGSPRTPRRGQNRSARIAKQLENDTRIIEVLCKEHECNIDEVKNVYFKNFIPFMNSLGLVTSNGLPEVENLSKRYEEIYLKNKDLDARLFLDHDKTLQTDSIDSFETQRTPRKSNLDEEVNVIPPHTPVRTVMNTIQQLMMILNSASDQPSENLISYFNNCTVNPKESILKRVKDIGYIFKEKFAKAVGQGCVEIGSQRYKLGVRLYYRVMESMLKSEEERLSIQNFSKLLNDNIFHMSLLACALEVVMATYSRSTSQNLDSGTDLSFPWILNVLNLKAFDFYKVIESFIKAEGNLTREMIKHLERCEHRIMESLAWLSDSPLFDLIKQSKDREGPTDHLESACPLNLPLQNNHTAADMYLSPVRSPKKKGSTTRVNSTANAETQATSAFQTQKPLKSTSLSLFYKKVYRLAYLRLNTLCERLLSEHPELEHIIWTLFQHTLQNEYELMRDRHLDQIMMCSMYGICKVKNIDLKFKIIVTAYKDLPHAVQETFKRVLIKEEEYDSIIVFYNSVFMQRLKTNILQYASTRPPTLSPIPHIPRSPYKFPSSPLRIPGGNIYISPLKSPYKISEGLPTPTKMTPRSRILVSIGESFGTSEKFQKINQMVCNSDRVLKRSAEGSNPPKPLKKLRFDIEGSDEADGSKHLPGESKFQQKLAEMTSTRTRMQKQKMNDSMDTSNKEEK

Molecule: CN1CC[C@H](c2c(O)cc(O)c3c(=O)cc(-c4ccccc4Cl)oc23)[C@H](O)C1 [flavopiridol]
PD-L1 mRNA expression (PD-L1 mRNA; PC-3 cells): dramatic downregulation
palbociclib-induced elevation of PD-L1 (PD-L1 mRNA; PC-3 cells): completely abolished

Molecule: C=C1C(=O)O[C@@H]2C[C@@H](C)[C@@H]3C=CC(=O)[C@@]3(C)[C@@H](O)[C@H]12 [helenalin]
RB knockdown-induced PD-L1 upregulation (PD-L1 mRNA; PC-3 cells with RB1 shRNA, Helenalin 2 μM): completely blocked; also recorded: inhibited
gamma irradiation-induced PD-L1 expression (PD-L1 mRNA; PC-3 cells, 12 Gy, Helenalin 2 μM): abrogated
PD-L1 mRNA expression (PD-L1 mRNA; PC-3 cells): decreased
palbociclib-induced elevation of PD-L1 (PD-L1 mRNA; PC-3 cells): completely abolished

Molecule: CC[C@H](CO)Nc1nc(NCc2ccccc2)c2ncn(C(C)C)c2n1 [roscovitine]
PD-L1 mRNA expression (PD-L1 mRNA; PC-3 cells): dramatic downregulation

Molecule: Cc1sc2c(c1C)C(c1ccc(Cl)cc1)=N[C@@H](CC(=O)OC(C)(C)C)c1nnc(C)n1-2 [JQ1]
PD-L1 mRNA expression (PD-L1 mRNA; PC-3 cells): dramatic downregulation

binding result [1]: no binding
B1: RelB (other, human, UniProt Q01201 1-579, looked up)
chain: MLRSGPASGPSVPTGRAMPSRRVARPPAAPELGALGSPDLSSLSLAVSRSTDELEIIDEYIKENGFGLDGGQPGPGEGLPRLVSRGAASLSTVTLGPVAPPATPPPWGCPLGRLVSPAPGPGPQPHLVITEQPKQRGMRFRYECEGRSAGSILGESSTEASKTLPAIELRDCGGLREVEVTACLVWKDWPHRVHPHSLVGKDCTDGICRVRLRPHVSPRHSFNNLGIQCVRKKEIEAAIERKIQLGIDPYNAGSLKNHQEVDMNVVRICFQASYRDQQGQMRRMDPVLSEPVYDKKSTNTSELRICRINKESGPCTGGEELYLLCDKVQKEDISVVFSRASWEGRADFSQADVHRQIAIVFKTPPYEDLEIVEPVTVNVFLQRLTDGVCSEPLPFTYLPRDHDSYGVDKKRKRGMPDVLGELNSSDPHGIESKRRKKKPAILDHFLPNHGSGPFLPPSALLPDPDFFSGTVSLPGLEPPGGPDLLDDGFAYDPTAPTLFTMLDLLPPAPPHASAVVCSGGAGAVVGETPGPEPLTLDSYQAPGPGDGGTASLVGSNMFPNHYREAAFGGGLLSPGPEAT

binding result [1]: no binding
B2: c-Rel (other, human, UniProt Q04864 2-619, looked up)
chain: ASGAYNPYIEIIEQPRQRGMRFRYKCEGRSAGSIPGEHSTDNNRTYPSIQIMNYYGKGKVRITLVTKNDPYKPHPHDLVGKDCRDGYYEAEFGQERRPLFFQNLGIRCVKKKEVKEAIITRIKAGINPFNVPEKQLNDIEDCDLNVVRLCFQVFLPDEHGNLTTALPPVVSNPIYDNRAPNTAELRICRVNKNCGSVRGGDEIFLLCDKVQKDDIEVRFVLNDWEAKGIFSQADVHRQVAIVFKTPPYCKAITEPVTVKMQLRRPSDQEVSESMDFRYLPDEKDTYGNKAKKQKTTLLFQKLCQDHVETGFRHVDQDGLELLTSGDPPTLASQSAGITVNFPERPRPGLLGSIGEGRYFKKEPNLFSHDAVVREMPTGVSSQAESYYPSPGPISSGLSHHASMAPLPSSSWSSVAHPTPRSGNTNPLSSFSTRTLPSNSQGIPPFLRIPVGNDLNASNACIYNNADDIVGMEASSMPSADLYGISDPNMLSNCSVNMMTTSSDSMGETDNPRLLSMNLENPSCNSVLDPRDLRQLHQMSSSSMSAGANSNTTVFVSQSDAFEGSDFSCADNSMINESGPSNSTNPNSHGFVQDSQYSGIGSMQNEQLSDSFPYEFFQV

binding result [1]: no binding
B3: p52 (other, human, UniProt Q00653 1-454, looked up)
chain: MESCYNPGLDGIIEYDDFKLNSSIVEPKEPAPETADGPYLVIVEQPKQRGFRFRYGCEGPSHGGLPGASSEKGRKTYPTVKICNYEGPAKIEVDLVTHSDPPRAHAHSLVGKQCSELGICAVSVGPKDMTAQFNNLGVLHVTKKNMMGTMIQKLQRQRLRSRPQGLTEAEQRELEQEAKELKKVMDLSIVRLRFSAFLRASDGSFSLPLKPVISQPIHDSKSPGASNLKISRMDKTAGSVRGGDEVYLLCDKVQKDDIEVRFYEDDENGWQAFGDFSPTDVHKQYAIVFRTPPYHKMKIERPVTVFLQLKRKRGGDVSDSKQFTYYPLVEDKEEVQRKRRKALPTFSQPFGGGSHMGGGSGGAAGGYGGAGGGGSLGFFPSSLAYSPYQSGAGPMGCYPGGGGGAQMAATVPSRDSGEEAAEPSAPSRTPQCEPQAPEMLQRAREYNARLFGLA

— US20210401931A1, “METHODS AND MATERIALS FOR TREATING CANCER” (Mayo Foundation for Medical Education and Research, priority 2018, published 2021)
